Test results taken from paper PMC7182704 (Computational and Structural Biotechnology Journal, 2020).

Assays:
[1] = biological target: T1, DmmA (Lyngbya majuscula, UniProt Q6DND9); conditions: 37 °C, pH 8.6; cited from earlier work
T1 sequence (Q6DND9 25-341): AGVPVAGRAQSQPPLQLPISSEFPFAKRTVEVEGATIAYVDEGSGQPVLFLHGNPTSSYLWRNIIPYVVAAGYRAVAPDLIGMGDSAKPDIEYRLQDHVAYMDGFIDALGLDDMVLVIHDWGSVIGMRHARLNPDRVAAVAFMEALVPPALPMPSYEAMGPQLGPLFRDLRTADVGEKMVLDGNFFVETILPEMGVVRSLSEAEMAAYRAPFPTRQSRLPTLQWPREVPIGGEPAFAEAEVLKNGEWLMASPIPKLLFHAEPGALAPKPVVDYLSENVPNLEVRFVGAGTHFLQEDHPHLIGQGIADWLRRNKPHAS

[2] = biological target: T2, LinB (Sphingobium indicum, UniProt D4Z2G1); conditions: 37 °C, pH 8.6; cited from earlier work
T2 sequence (D4Z2G1 1-296): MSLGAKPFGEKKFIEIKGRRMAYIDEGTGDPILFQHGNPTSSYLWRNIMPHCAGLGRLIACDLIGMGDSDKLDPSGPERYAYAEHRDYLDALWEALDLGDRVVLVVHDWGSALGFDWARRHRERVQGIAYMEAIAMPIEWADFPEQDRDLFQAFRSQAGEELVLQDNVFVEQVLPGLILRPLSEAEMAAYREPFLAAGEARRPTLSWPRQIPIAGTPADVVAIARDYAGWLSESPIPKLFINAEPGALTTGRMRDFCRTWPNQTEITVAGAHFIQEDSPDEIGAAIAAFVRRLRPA

[3] = biological target: T2, LinB; conditions: pH 8.6, 37 °C, cited from earlier work
[4] = Photophysical properties of fluorescent substrates; assay type: physicochemical
[5] = Stability of COU–Br and BDP–Cl in the dark and under irradiation; assay type: physicochemical; conditions: 10 µM, pH 8.0, 30 °C
[6] = test system: DhaA; conditions: pH 9.4, 30 °C; cited from earlier work
[7] = test system: DhlA; conditions: pH 8.2, 30 °C; cited from earlier work
[8] = substrate: COc1cc2oc(=O)cc(CBr)c2cc1OC; experiment: Steady-state kinetics, fluorescence progress curves fitted globally; assay type: biochemical, marine microbial consortium; conditions: other: DmmA, 30 °C, pH 8.0
[9] = PBS buffer/DMSO (90:10, v/v), pH 8.0, c ≈ 10^−6 M

In the case of CCCCCl [CB, 1-chlorobutane], the Km [1] is listed as 400 ± 100 µM, the kcat [1] is listed as 0.17 ± 0.02 s⁻¹ and the Km [2] is listed as 240 ± 20 µM. For the same molecule, the kcat [2] was 1.00 ± 0.03 s⁻¹.

For CCCCCCCl [CH, 1-chlorohexane], the k3 ([3]; three-step model) is listed as 3.2 ± 0.2 s⁻¹ and the k2 [3] is listed as 117 ± 5 s⁻¹.

In the case of COc1cc2oc(=O)cc(CBr)c2cc1OC [COU–Br, 4-(bromomethyl)-6,7-dimethoxycoumarin], the “increase in quantum yield upon covalent binding to HLDs” value [4] is reported as 6 fold, the “Φfl (quantum yield of fluorescence)” value [4, 9] is reported as 15.2 ± 1.2% and the “λmax (absorption maximum)” value [4, 9] is reported as 354 nm. The “ε (molar absorption coefficient)” value ([4]; neat DMSO, three independent measurements) was 11,500 M^−1cm^−1, the stability under irradiation ([5]; PBS buffer/DMSO (90:10), xenon lamp 100 W, 10 min) was “slowly degraded under irradiation” and the “stability in the dark” value ([5]; PBS buffer/DMSO (90:10, v/v)) was “stable in the dark”.

In the case of BrCCBr [DBE, 1,2-dibromoethane], the Km [1] is listed as 2300 ± 300 µM, the kcat [1] is listed as 1.8 ± 0.4 s⁻¹ and the Km [2] is listed as 1700 ± 200 µM. The kcat [2] was 12 ± 4 s⁻¹.

For BrCCCBr [DBP, 1,3-dibromopropane], the k1 [6] is listed as 800000 to 2.5e+06 M⁻¹ s⁻¹, the k2 [6] is listed as 249 to 272 s⁻¹ and the k3 [6] is listed as 13.5 to 16.3 s⁻¹. The k4 [6] was 3.4 to 4.6 s⁻¹ and the “k−1” value [6] was 60 to 300 s⁻¹.

In the case of ClCCCl [DCE, 1,2-dichloroethane], the k1 [7] is given as 9 ± 1 × 10^-3 μM^−1s^−1, the k2 [7] is given as 50 ± 10 s⁻¹ and the k3 [7] is given as 14 ± 3 s⁻¹. For the same molecule, the k4 [7] was 8 ± 2 s⁻¹ and the “k−1” value [7] was 20 ± 5 s⁻¹.

B1: DmmA (Lyngbya majuscula) (protein)
chain: AGVPVAGRAQSQPPLQLPISSEFPFAKRTVEVEGATIAYVDEGSGQPVLFLHGNPTSSYLWRNIIPYVVAAGYRAVAPDLIGMGDSAKPDIEYRLQDHVAYMDGFIDALGLDDMVLVIHDWGSVIGMRHARLNPDRVAAVAFMEALVPPALPMPSYEAMGPQLGPLFRDLRTADVGEKMVLDGNFFVETILPEMGVVRSLSEAEMAAYRAPFPTRQSRLPTLQWPREVPIGGEPAFAEAEVLKNGEWLMASPIPKLLFHAEPGALAPKPVVDYLSENVPNLEVRFVGAGTHFLQEDHPHLIGQGIADWLRRNKPHAS
Work on B1 yielded a Km [8] of 0.9 ± 0.6 µM, a kcat [8] of 1.9 ± 0.1 s⁻¹ and a kcat/Km [8] of 2.1e+06 M⁻¹ s⁻¹.
